According to patent US20130109682A1, “CYCLIC ETHER COMPOUNDS USEFUL AS KINASE INHIBITORS” (NOVARTIS AG, priority 2010, published 2013):
Read-outs that look alike come from different tables or passages of the source.

Key:
GSK3β = GSK3β (Homo sapiens, UniProt P49841); assay: GSK3β ATP depletion assay; type: biochemical; conditions: read-out: GSK3b IC50
Method in brief: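 Human GSK3β (5 nM) preincubated 15 min with 10 μM biotinylated phospho-CREB peptide in pH 7.5 Tris buffer (15 mM MgCl2, 1 mM DTT, 0.1% BSA, 2.5% DMSO). Reaction started with 2 μM ATP and run to about 50% ATP depletion. Remaining ATP measured by KinaseGlo luminescence.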

PKCα = PKCα (Homo sapiens, UniProt P17252); assay: PKCα kinase Caliper assay; type: biochemical
Protocol: PKCα and cABLT315 Kinase Caliper Assays
Assays were performed in 384 well microtiter plates. Each assay plate contained 8-point serial dilutions for test compounds, as well as two 16-point serial dilutions of staurosporine as reference compound, plus 16 high- and 16 low controls. Liquid handling and incubation steps were done on a Thermo CatX workstation equipped with a Innovadyne Nanodrop Express. Between pipetting steps, tips were cleaned in wash cycles using wash buffer. Plates with terminated kinase reactions were transferred to the Caliper LC3000 workstations for reading. Phosphorylated and unphosphorylated peptides were separated using the Caliper microfluidic mobilitishift technology and Kinase activities were calculated from the amounts of formed phospho-peptide.
1. 0.05 μA Compound (start with 1.8 mM in 90% DMSO/10% H2O)
2. +4.5 μl 2× peptide/ATP solution
3. +4.5 μl 2× enzyme solution
4. Incubate for 60 min at 30° C.
4. +16 μl stop/run buffer
Independent of the kinase, all reactions were done performed in 50 mM HEPES, pH 7.5, 1 mM DTT, 0.02% Tween20, 0.02% BSA, and 0.6% DMSO.

PDGFRaV561D kinase = PDGFRaV561D kinase (Homo sapiens, UniProt P16234, V561D); assay: PDGFRaV561D kinase inhibition assay (LanthaScreen TR-FRET); type: biochemical; conditions: read-out: PDGFRa IC50
Sequence of PDGFRaV561D kinase (P16234 24-1089 V561D): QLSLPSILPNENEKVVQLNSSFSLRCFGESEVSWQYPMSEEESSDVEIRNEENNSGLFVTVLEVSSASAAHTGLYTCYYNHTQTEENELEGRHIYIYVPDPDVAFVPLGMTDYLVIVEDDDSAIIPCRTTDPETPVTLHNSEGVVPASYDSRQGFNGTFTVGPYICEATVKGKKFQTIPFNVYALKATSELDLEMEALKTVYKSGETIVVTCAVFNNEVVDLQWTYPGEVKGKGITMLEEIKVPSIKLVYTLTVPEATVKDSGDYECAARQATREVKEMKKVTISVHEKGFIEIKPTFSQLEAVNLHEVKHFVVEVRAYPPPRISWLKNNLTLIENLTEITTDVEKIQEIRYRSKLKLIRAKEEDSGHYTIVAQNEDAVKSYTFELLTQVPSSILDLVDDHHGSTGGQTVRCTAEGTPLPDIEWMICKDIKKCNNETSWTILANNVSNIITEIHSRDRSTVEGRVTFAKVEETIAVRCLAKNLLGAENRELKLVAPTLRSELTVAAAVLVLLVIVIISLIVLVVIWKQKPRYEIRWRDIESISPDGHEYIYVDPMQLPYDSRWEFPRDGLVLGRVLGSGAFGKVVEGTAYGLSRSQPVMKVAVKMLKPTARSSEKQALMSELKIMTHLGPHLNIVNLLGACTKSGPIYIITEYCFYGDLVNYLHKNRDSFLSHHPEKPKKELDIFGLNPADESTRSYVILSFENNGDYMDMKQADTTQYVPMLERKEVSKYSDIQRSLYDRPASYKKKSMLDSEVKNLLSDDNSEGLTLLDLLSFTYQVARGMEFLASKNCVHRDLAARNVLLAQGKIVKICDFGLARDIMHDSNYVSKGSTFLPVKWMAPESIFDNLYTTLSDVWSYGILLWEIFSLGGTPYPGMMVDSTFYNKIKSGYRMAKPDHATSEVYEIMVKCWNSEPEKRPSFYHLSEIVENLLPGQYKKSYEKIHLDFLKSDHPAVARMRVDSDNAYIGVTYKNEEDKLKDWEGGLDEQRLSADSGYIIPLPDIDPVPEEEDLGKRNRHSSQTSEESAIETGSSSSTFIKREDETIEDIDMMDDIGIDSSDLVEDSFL
Protocol: PDGFRaV561D Kinase Inhibition Assay
LanthaScreen™ is the detection of Time-Resolved Fluorescence Resonance Energy Transfer (TR-FRET) using lanthanide chelates to measure interactions between various binding partners. The application of TR-FRET to assay kinase activity was first described by Mathis (1995). A TR-FRET assay was used to measure PDGFRaV561D kinase inhibitory activity. The assay panel was run on a Biomek FX liquid handling workstations. To the assay plates containing […] compound or control solutions, 4.5 μL of buffer A (50 mM TRIS-HCl pH 7.4, 2 mM DTT, 0.02% Tween 20, 0.02 mM Na3VO4, H2O nanpure) including a generic concentration of ATP (2 μM f.c.) was added per well, followed by […] of buffer B (4 uM ATP in Buffer A) including a generic concentration of polyEAY (50 nM f.c.), PDGFRaV561D kinase, and divalent cations. Final concentration of kinase and cations were: [PDGFRaV561D kinase]=4.4 nM, [Mn]=10 mM. After 1 hour of incubation the kinase reactions were stopped by the addition of 4.5 μL of stop solution D (50 mM EDTA, 20 mM TRIS-HCl pH 7.4, 0.04% NP-40) immediately followed by 4.5 μL of buffer A (50 mM TRIS-HCl pH 7.4, 2 mM DTT, 0.02% Tween 20, 0.02 mM Na3VO4, H2O nanpure) including the Tb-labeled P-20 antibody to give a total detection volume of […]. After an incubation time of 45 min in the dark, the plates were transferred into the Pherastar fluorescence reader for counting. The effect of compound on the enzymatic activity was obtained from the linear progress curves and determined from one reading (end point measurement).

[1] = tested on: KMS11 (human myeloma cell line); assay: Cell proliferation assay (CellTiter-Glo), KMS11; type: cell-based; conditions: Homo sapiens, KMS-11
Method in brief: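 KMS11 cells in IMDM with 10% FBS and sodium pyruvate, seeded at 2000 cells/well on assay day. Compound added at 2× to equal volume of cells, incubated 3 days at 37° C. Viability read by CellTiter-Glo luminescence; EC50 derived.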

[2] = PKCα Caliper assay, read-out: PKC IC50

Sequence of GSK3β (P49841 whole entry, species assumed): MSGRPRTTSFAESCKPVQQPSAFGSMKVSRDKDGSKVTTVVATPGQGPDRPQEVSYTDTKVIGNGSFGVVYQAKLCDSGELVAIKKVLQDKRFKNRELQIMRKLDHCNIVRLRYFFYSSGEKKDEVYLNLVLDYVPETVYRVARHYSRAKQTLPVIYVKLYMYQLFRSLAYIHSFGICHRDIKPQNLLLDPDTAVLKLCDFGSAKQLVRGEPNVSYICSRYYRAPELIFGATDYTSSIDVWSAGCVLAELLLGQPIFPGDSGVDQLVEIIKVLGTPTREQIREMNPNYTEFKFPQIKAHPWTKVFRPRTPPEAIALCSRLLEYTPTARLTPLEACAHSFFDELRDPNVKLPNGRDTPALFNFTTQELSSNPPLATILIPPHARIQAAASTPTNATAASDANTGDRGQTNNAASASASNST

| IC50 (GSK3β; ATP depletion assay) | IC50 (PKCα; [2]) | IC50 (PDGFRaV561D kinase) | EC50 ([1]; KMS11-Luc cells) | IC50 (GSK3β) | IC50 (PKCα; read-out: PKC IC50) | IC50 (PKCα) | EC50 ([1]; KMS11 cells, cell proliferation, read-out: KMS11-Luc EC50) | SMILES |
| --- | --- | --- | --- | --- | --- | --- | --- | --- |
| 25 nM | 84 nM | 760 nM |  |  |  |  |  | C[C@]1(O)[C@H](N)C[C@H](c2ccncc2NC(=O)c2nc(-c3ccccc3)cnc2N)OC12CC2 [Example 353, 3-amino-N-(4-((5R,7R,8S)-7-amino-8-hydroxy-8-methyl-4-oxaspiro[2.5]octan-5-yl)pyridin-3-yl)-6-phenylpyrazine-2-carboxamide] |
| 393 nM |  | 7500 nM |  |  |  | > 10000 nM |  | Nc1cc(F)c(-c2c(F)cccc2F)nc1C(=O)Nc1cnccc1[C@H]1C[C@@H](N)[C@@]2(O)CCCC[C@H]2O1 [Example 238, 3-amino-N-(4-((2R,4R,4aS,8aR)-4-amino-4a-hydroxyoctahydro-2H-chromen-2-yl)pyridin-3-yl)-6-(2,6-difluorophenyl)-5-fluoropicolinamide] |
| 7.8 nM | 21 nM | 420 nM |  |  |  |  |  | C[C@@]1(O)[C@@H](N)C[C@@H](c2ccncc2NC(=O)c2nc(-c3ccccc3)cnc2N)OC12CC2 [Example 350, 3-amino-N-(4-((5S,7S,8R)-7-amino-8-hydroxy-8-methyl-4-oxaspiro[2.5]octan-5-yl)pyridin-3-yl)-6-phenylpyrazine-2-carboxamide] |
| 870 nM | 7200 nM | 8300 nM |  |  |  |  |  | Nc1ncc(-c2ccccc2)nc1C(=O)Nc1cnccc1[C@@H]1C[C@H](N)[C@]2(O)CCCC[C@@H]2O1 [Example 243, 3-amino-N-(4-((2S,4S,4aR,8aS)-4-amino-4a-hydroxyoctahydro-2H-chromen-2-yl)pyridin-3-yl)-6-phenylpyrazine-2-carboxamide] |
| 5.3 nM | 55 nM | 41 nM |  |  |  |  |  | C[C@@]1(O)[C@H](N)C[C@@H](c2ccncc2NC(=O)c2nc(-c3ccccc3)cnc2N)OC12CC2 [Example 352, 3-amino-N-(4-((5S,7R,8R)-7-amino-8-hydroxy-8-methyl-4-oxaspiro[2.5]octan-5-yl)pyridin-3-yl)-6-phenylpyrazine-2-carboxamide] |
| 7.9 nM | 10 nM | 150 nM |  |  |  |  |  | CC1(C)C[C@H](N)C[C@@H](c2ccncc2NC(=O)c2nc(-c3ccccc3)cnc2N)O1 [Example 297, 3-amino-N-(4-((2S,4R)-4-amino-6,6-dimethyltetrahydro-2H-pyran-2-yl)pyridin-3-yl)-6-phenylpyrazine-2-carboxamide] |
| 0.4 nM |  | 18 nM |  |  |  |  |  | C[C@]1(O)[C@@H](N)C[C@H](c2ccncc2NC(=O)c2nc(-c3ccccc3)cnc2N)OC12CC2 [Example 351, 3-amino-N-(4-((5R,7S,8S)-7-amino-8-hydroxy-8-methyl-4-oxaspiro[2.5]octan-5-yl)pyridin-3-yl)-6-phenylpyrazine-2-carboxamide] |
| 471 nM | > 10000 nM | 400 nM |  |  |  |  |  | COc1cc(F)c(-c2nc(C(=O)Nc3cnccc3[C@H]3C[C@@H](N)[C@](C)(O)[C@@H](C)O3)ccc2F)c(F)c1 [Example 242, N-(4-((2R,4R,5S,6R)-4-amino-5-hydroxy-5,6-dimethyltetrahydro-2H-pyran-2-yl)pyridin-3-yl)-6-(2,6-difluoro-4-methoxyphenyl)-5-fluoropicolinamide] |
| 0.5 nM |  | 280 nM |  |  |  |  | 1970 nM | CC(C)(C)[C@H]1O[C@@H](c2ccncc2NC(=O)c2nc(-c3ccccc3)cnc2N)C[C@H](N)[C@@H]1O [Example 286, 3-amino-N-(4-((2R,4S,5S,6R)-4-amino-6-tert-butyl-5-hydroxytetrahydro-2H-pyran-2-yl)pyridin-3-yl)-6-phenylpyrazine-2-carboxamide] |
| 9.4 nM | 40 nM | 8.7 nM |  |  |  |  |  | CC1(C)C[C@@H](N)C[C@H](c2ccncc2NC(=O)c2nc(-c3ccccc3)cnc2N)O1 [Example 296, 3-amino-N-(4-((2R,4S)-4-amino-6,6-dimethyltetrahydro-2H-pyran-2-yl)pyridin-3-yl)-6-phenylpyrazine-2-carboxamide] |

Second part, the compound before the results:

| SMILES | IC50 (GSK3β; ATP depletion assay) | IC50 (PKCα; [2]) | IC50 (PDGFRaV561D kinase) | EC50 ([1]; KMS11-Luc cells) | IC50 (GSK3β) | IC50 (PKCα; read-out: PKC IC50) | IC50 (PKCα) | EC50 ([1]; KMS11 cells, cell proliferation, read-out: KMS11-Luc EC50) |
| --- | --- | --- | --- | --- | --- | --- | --- | --- |
| C[C@H]1O[C@@H](c2ccncc2NC(=O)c2nc(-c3ccccc3)cnc2N)[C@H](F)[C@@H](O)[C@]1(C)O [Example 58, 3-amino-N-(4-((2S,3R,4S,5S,6R)-3-fluoro-4,5-dihydroxy-5,6-dimethyltetrahydro-2H-pyran-2-yl)pyridin-3-yl)-6-phenylpyrazine-2-carboxamide] |  |  |  | 1000 nM | 1 nM | 820 nM |  |  |
| C[C@@H]1O[C@H](c2ccncc2NC(=O)c2nc(-c3ccccc3)cnc2N)C[C@H](O)[C@@]1(C)O [Example 86, 3-amino-N-(4-((2S,4S,5R,6S)-4,5-dihydroxy-5,6-dimethyltetrahydro-2H-pyran-2-yl)pyridin-3-yl)-6-phenylpyrazine-2-carboxamide] |  |  |  | 2800 nM | 3 nM | 790 nM |  |  |
| C[C@H]1O[C@@H](c2ccncc2NC(=O)c2nc(-c3ccccc3)cnc2N)C[C@@H](O)[C@]1(C)O [Example 84, 3-amino-N-(4-((2R,4R,5S,6R)-4,5-dihydroxy-5,6-dimethyltetrahydro-2H-pyran-2-yl)pyridin-3-yl)-6-phenylpyrazine-2-carboxamide] |  |  |  | 900 nM | 1 nM | 490 nM |  |  |
| C[C@@H]1O[C@H](c2ccncc2NC(=O)c2nc(-c3ccccc3)cnc2N)[C@@H](F)[C@H](O)[C@@]1(C)O [Example 63, 3-amino-N-(4-((2R,3S,4R,5R,6S)-3-fluoro-4,5-dihydroxy-5,6-dimethyltetrahydro-2H-pyran-2-yl)pyridin-3-yl)-6-phenylpyrazine-2-carboxamide] |  |  |  | 1300 nM | 2 nM | 41 nM |  |  |
| Nc1ncc(-c2ccccc2)nc1C(=O)Nc1cnccc1[C@H]1C[C@@H](O)[C@H](O)[C@@H](CCl)O1 [Example 36, 3-amino-N-(4-((2R,4R,5S,6S)-6-(chloromethyl)-4,5-dihydroxytetrahydro-2H-pyran-2-yl)pyridin-3-yl)-6-phenylpyrazine-2-carboxamide] |  |  |  | 200 nM | 1 nM | 100 nM |  |  |
| C[C@H]1O[C@@H](c2ccncc2NC(=O)c2nc(-c3ccccc3)ncc2N)C[C@@H](O)[C@]1(C)O [Example 32, 5-amino-N-(4-((2R,4R,5S,6R)-4,5-dihydroxy-5,6-dimethyltetrahydro-2H-pyran-2-yl)pyridin-3-yl)-2-phenylpyrimidine-4-carboxamide] |  |  |  | 1120 nM | 454 nM | > 10000 nM |  |  |
| CC[C@]1(O)[C@H](N)C[C@H](c2ccncc2NC(=O)c2ccc(F)c(-c3c(F)cccc3F)n2)O[C@@H]1C [Example 232, N-(4-((2R,4R,5S,6R)-4-amino-5-ethyl-5-hydroxy-6-methyltetrahydro-2H-pyran-2-yl)pyridin-3-yl)-6-(2,6-difluorophenyl)-5-fluoropicolinamide] |  | 9500 nM | 630 nM |  |  |  |  |  |
| C=C1[C@@H](O)C[C@@H](c2ccncc2NC(=O)c2nc(-c3ccccc3)cnc2N)OC12CC2 [Example 5, 3-amino-N-(4-((5S,7S)-7-hydroxy-8-methylene-4-oxaspiro[2.5]octan-5-yl)pyridin-3-yl)-6-phenylpyrazine-2-carboxamide] |  |  |  | 90 nM | 1 nM | 60 nM |  |  |
| CC[C@H]1O[C@@H](c2ccncc2NC(=O)c2nc(-c3ccccc3)ncc2N)C[C@@H](O)[C@@H]1O [Example 39, 5-amino-N-(4-((2R,4R,5S,6R)-6-ethyl-4,5-dihydroxytetrahydro-2H-pyran-2-yl)pyridin-3-yl)-2-phenylpyrimidine-4-carboxamide] |  |  |  | > 10000 nM | 267 nM | > 10000 nM |  |  |
